Source: patent US20250120967A1, “TYROSINE KINASES INHIBITORS AND USES THEREOF” (GREAT NOVEL THERAPEUTICS BIOTECH & MEDICALS CORPORATION, priority 2023, published 2025)

Experiments:
M10 cells = assay: In vitro cytotoxicity assay (MTT, 72 h); type: cell-based; details: growth inhibition, human normal cell line
Experimental: (§1) Six different cell lines were used, including human breast cancer cell lines MDA-MB-231 (6×10^3) and MDA-MB-453 (2.4×10^4), human colorectal cell line SW48 (2.4×10^4), human breast epithelial cell line M10 (6×10^3), human cancer cell line A549 (1.4×10^3), and murine colorectal carcinoma tumors CT26 (6×10^3), which were seeded in a 96-well plate. […] After 72 h, MTT assay (Cayman™) was used to determine the cellular viability.

SW48 cells = assay: In vitro cytotoxicity assay (MTT, 72 h); type: cell-based; details: Homo sapiens, growth inhibition
Experimental: as §1

MDA-MB-453 cells = assay: In vitro cytotoxicity assay (MTT, 72 h); type: cell-based; details: Homo sapiens, growth inhibition
Experimental: as §1

MDA-MB-231 cells = assay: In vitro cytotoxicity assay (MTT, 72 h); type: cell-based; details: Homo sapiens, growth inhibition
Experimental: as §1

A549 cells = assay: In vitro cytotoxicity assay (MTT, 72 h); type: cell-based; details: Homo sapiens, growth inhibition
Experimental: as §1

CT-26 cells = assay: In vitro cytotoxicity assay (MTT, 72 h); type: cell-based, murine; details: Mus musculus, CT26, growth inhibition
Experimental: as §1

CT26 tumor = assay: Experimental tumor model and therapies, CT26 tumor-bearing mice;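 note: male Balb/c mice bearing CT26 grafts in the back, treated once tumors reached roughly 250–300 mm^3, tumor volume measured twice weekly, response graded by fold growth after treatment end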
Experimental: LLC1 was grown at 37° C. under humidified air supplemented with CO2 in DMEM (#10-013-CM, Corning®) containing 10% heat inactivated fetal calf serum, and 1× concentration of MycoZap Antibiotics. CT26 was grown at 37° C. under humidified air supplemented with CO2 in RPMI1640 (cat. #10-040-CM, Corning®) containing 10% heat inactivated fetal calf serum, and 1× concentration of MycoZap Antibiotics. After the cancer cell culture was completed, it was implanted (1×10^6 cells/mouse) into the back of the mouse for growth.
Six- to eight-week-old male Balb/c mice (National Laboratory Animal Center, Taiwan) were used for all animal experiments. […] Tumors were allowed to grow for 10-12 days (tumor size about 250-300 mm^3) before randomization and treatment. The tumor volume of the mice was measured once every three or four days (twice/week). Animals were euthanized when tumors reached more than 3000 mm^3 in diameter. […] Relapse/recurrence was defined as when tumor growth reappeared and tumor size reached at least 5 fold in mice with CR or PR response after secondary tumor assessment. In this study, we defined Complete Response (CR, <0.5 time tumor growth in the tumor bearing mice at tumor assessment after the end of treatment); Partial Response (PR, tumor size ≥0.5 time tumor growth, but <1 time tumor growth in the tumor bearing mice at tumor assessment after the end of treatment); Stable Disease (SD, ≥1 time tumor growth, but <5 times tumor growth in the tumor bearing mice at tumor assessment after the end of treatment); and Progressive Disease (PD, ≥5 times tumor growth in the tumor bearing mice at tumor assessment after the end of treatment) for the evaluation of treatment efficacy.

[1] = FIG. 3E, oral 12 days, Cabozantinib 30 mg/kg, Cbo-20 30 mg/kg, GNTbm-38-K30 40 mg/kg
[2] = FIG. 7E, Cbo-23-K30 30 mg/kg, Zanzalintinib hemifumarate 30 mg/kg, GNTbm-38-2HCL 40 mg/kg
[3] = FIG. 5E, Cbo-23 30 mg/kg, Regorafenib 30 mg/kg, GNTbm-38-K30 20 mg/kg in combination, 5 mg/kg alone

Compound | IC50 (M10 cells) | IC50 (SW48 cells) | IC50 (MDA-MB-453 cells) | IC50 (MDA-MB-231 cells) | IC50 (A549 cells) | IC50 (CT-26 cells) | other results
COc1cc2nccc(Oc3ccc(C(=O)NC4(C(=O)Nc5ccc(F)cc5)CC4)cc3F)c2cc1OC [Cbo-03, 4-((6,7-diMethoxyquinolin-4-yl)oxy)-3-fluoro-N-(1-((4-fluorophenyl)carbamoyl)cyclopropyl)benzamide] | 16.2 ± 1.44 µM | > 25 µM | 17.9 ± 1.34 µM | 12.7 ± 1.37 µM | 12.8 ± 6.7 µM | – | –
COc1cc2nccc(Oc3ccc(NC(=O)C4(NC(=O)c5ccc(F)cc5)CC4)cc3F)c2cc1Oc1ccc(N)cc1 [Cbo-05] | 1.17 ± 0.053 µM | 1.86 ± 0.059 µM | 8.92 ± 1.49 µM | 7.84 ± 1.34 µM | 2.51 ± 0.21 µM | 8.9 ± 0.61 µM | –
COc1cc2nccc(Oc3ccc(NC(=O)C4(NC(=O)c5ccc(F)cc5)CC4)cc3F)c2cc1Oc1ccc(N)cn1 [Cbo-06] | 5.59 ± 0.46 µM | 8.76 ± 0.52 µM | > 25 µM | > 25 µM | 6.89 ± 1.61 µM | – | –
COc1cc2nccc(Oc3ccc(NC(=O)C4(NC(=O)c5ccc(F)cc5)CC4)cc3F)c2cc1O [Cbo-07, 4-Fluoro-N-(1-((3-fluoro-4-((6-hydroxy-7-methoxyquinolin-4-yl)oxy)phenyl)carbamoyl)cyclopropyl)benzamide] | 4.44 ± 1.51 µM | 0.74 ± 0.13 µM | > 25 µM | 5.07 ± 1.04 µM | 1.49 ± 0.21 µM | – | –
COc1cc2nccc(Oc3ccc(NC(=O)C4(NC(=O)c5ccc(F)cc5)CC4)cc3F)c2cc1Oc1cccc(N)c1 [Cbo-08] | 1.83 ± 0.72 µM | 3.51 ± 0.48 µM | > 25 µM | > 25 µM | 2.6 ± 1.82 µM | – | –
COc1cc2nccc(Oc3ccc(NC(=O)C4(NC(=O)c5ccc(F)cc5)CC4)cc3F)c2cc1Oc1ccc(N)cc1C [Cbo-09] | 0.99 ± 0.044 µM | 1.02 ± 0.008 µM | 9.28 ± 0.66 µM | 12.6 ± 0.98 µM | 6.89 ± 1.61 µM | – | –
COc1cc2nccc(Oc3ccc(N(C(=O)C4(C(N)=O)CC4)c4ccc(F)cc4)cc3F)c2cc1OC [Cbo-20, N-(4-((6,7-dimethoxyquinolin-4-yl)oxy)-3-fluorophenyl)-N-(4-fluorophenyl)cyclo-propane-1,1-dicarboxamide] | 5.47 ± 1.73 µM | 2.51 ± 0.18 µM | 14.1 ± 2.06 µM | 4.81 ± 1.16 µM | 3.34 ± 0.69 µM | 8.89 ± 0.24 µM | CR (number of mice) (CT26 tumor; [1]): 2; ORR (CT26 tumor; [1]): 50%; PD (number of mice) (CT26 tumor; [1]): 2; PR (number of mice) (CT26 tumor; [1]): 2; Survival Rate (CT26 tumor; FIG. 3F, Cabozantinib 30 mg/kg, Cbo-20 30 mg/kg, GNTbm-38-K30 40 mg/kg): 25%; recurrence rate (CT26 tumor; FIG. 3G, day 60, Cabozantinib 30 mg/kg, Cbo-20 30 mg/kg, GNTbm-38-K30 40 mg/kg): 75%
CC(CN)NC(=O)c1cc(Oc2ccc(N(C(=O)C3(C(N)=O)CC3)c3ccc(F)cc3)cc2F)ccn1 (centres unmarked) [Cbo-22, N-(4-((2-((1-aminopropan-2-yl)carbamoyl)pyridin-4-yl)oxy)-3-fluorophenyl)-N-(4-fluorophenyl)cyclopropane-1,1-dicarboxamide] | 15.1 ± 0.44 µM | 21.9 ± 0.96 µM | > 25 µM | 16.1 ± 0.19 µM | 11.2 ± 1.18 µM | > 25 µM | ORR (CT26 tumor; FIG. 4D, Cabozantinib 30 mg/kg, Cbo-22 30 mg/kg, GNTbm-38-K30 40 mg/kg): 0%; Survival Rate (CT26 tumor; FIG. 4E, Cabozantinib 30 mg/kg, Cbo-22 30 mg/kg, GNTbm-38-K30 40 mg/kg): 0%
COc1cc2nccc(Oc3ccc(NC(=O)C4(C(=O)Nc5ccc(F)cc5)CC4)cc3F)c2cc1C(=O)NC(C)CN (centres unmarked) [Cbo-24, O-phenyl-N-(4-fluorophenyl)cyclopropane-1,1-dicarboxamide] | > 25 µM | 8.75 ± 0.55 µM | 17 ± 0.96 µM | 15.7 ± 0.33 µM | 16.2 ± 0.95 µM | > 25 µM | –
Nc1ccccc1NC(=O)c1ccc(NC(=O)C/C=C/c2cccnc2)cc1 [GNTbm-38-2HCL, (E)-N-(2-aminophenyl)-4-(4-(pyridin-3-yl)but-3-enamido)benzamide] | – | – | – | – | – | – | CR (number of mice) (CT26 tumor; [2]): 0; ORR (CT26 tumor; [2]): 0%; PD (number of mice) (CT26 tumor; [2]): 9; PR (number of mice) (CT26 tumor; [2]): 0
CNC(=O)c1cc(Oc2ccc(NC(=O)Nc3ccc(Cl)c(C(F)(F)F)c3)c(F)c2)ccn1 [Regorafenib] | – | – | – | – | – | – | CR (number of mice) (CT26 tumor; [3]): 0; ORR (CT26 tumor; [3]): 0%; PD (number of mice) (CT26 tumor; [3]): 7; PR (number of mice) (CT26 tumor; [3]): 0; Survival Rate (CT26 tumor; FIG. 5F, Cbo-23 30 mg/kg, Regorafenib 30 mg/kg, GNTbm-38-K30 20 mg/kg in combination, 5 mg/kg alone): 0%
Zanzalintinib hemifumarate | – | – | – | – | – | – | CR (number of mice) (CT26 tumor; [2]): 0; ORR (CT26 tumor; [2]): 0%; PD (number of mice) (CT26 tumor; [2]): 9; PR (number of mice) (CT26 tumor; [2]): 0; tumor inhibition rate at day 28 (CT26 tumor; FIGS. 7B, 7C, Cbo-23-K30 30 mg/kg, Zanzalintinib hemifumarate 30 mg/kg, GNTbm-38-2HCL 40 mg/kg): 2%
